According to PMC9459403, “New inhibitors of cathepsin V impair tumor cell proliferation and elastin degradation and increase immune cell cytotoxicity” (Computational and Structural Biotechnology Journal, 2022):

Assays:
Assay type in all cases: cell-based, human
[1] = system: MCF7 cells; experiment: Proliferation assay (CFSE-labeled cells, flow cytometry); details: 72 h; E-64d 10 μM, pepstatin 20 μM, LHVS 10 nM, CLIK-148 1 μM
Procedure: To assess the effect of cathepsin V inhibitors on cell proliferation, MCF7 cells were fluorescently labeled with carboxyfluorescein succinimidyl ester (CFSE; ImmunoChemistry Technologies, Bloomington, MN, USA) in PBS for 15 min at room temperature according to the manufacturer’s instructions. Cells were washed with PBS, resuspended in complete medium, seeded (at 4 × 10^4 cells/well) into 24-well plates, and allowed to adhere overnight. Cells were then treated with the following inhibitors: compound 7 (10 μM), E-64d (10 μM), CLIK-148 (1 μM), LHVS (10 nM), pepstatin (20 μM), their combinations, or DMSO (0.1 %) in 500 μL of medium for 72 h at 37 °C. To prepare cells for flow cytometry, cells were detached and transferred to round-bottomed polystyrene tubes and washed with PBS. Before measurement, 7-aminoactinomycin D (7-AAD; ImmunoChemistry Technologies, Bloomington, MN, USA) was added according to the manufacturer’s instructions to exclude dead cells. Therefore, the green fluorescence arising from CFSE was monitored only for viable cells. The measurement was performed using a FACSCalibur instrument (BD Biosciences, San Jose, CA, USA).

[2] = system: TALL-104 effector cells on target K-562 cells; experiment: Calcein AM release assay (cytotoxicity); details: effector cells treated 10 µM, 6 h
Procedure: (§1) Effector cells (NK-92 or TALL-104; 1 × 10^6/ml) were treated with E-64d (10 µM) or compound 7 (10 µM) for 6 h. NK-92 cells were pre-treated with 1000 IU IL2/mL overnight prior to the addition of inhibitors. Effector cells were added to a 96-well U-bottom plate to achieve a selected effector-to-target ratio (E:T). Target K-562 cells were labelled with 15 µM Calcein-AM (Sigma) in serum-free RPMI 1640 medium for 30 min at 37 °C. Cells were then washed twice and resuspended in complete RPMI 1640 medium. Target cells (n = 5000) were added to the effectors. The plate was centrifuged at 200 × g for 1 min and incubated at 37 °C and 5 % CO2 for 4 h. After incubation, the plate was centrifuged at 700 × g for 5 min. The supernatant (50 µL) was transferred to a new microtiter plate to measure the fluorescence of the released Calcein-AM with a Tecan M1000 microtiter plate reader using 496 nm excitation and 516 nm emission filters. The percentage of cytotoxicity was calculated as follows: 100(test release-spontaneous release)/(total release-spontaneous release). Spontaneous release was measured in wells containing only target cells. For total release, 2 % Triton X-100 was added to the wells to achieve lysis of target cells. Lytic units (LU) were calculated using the inverse of the number of effector cells needed to lyse 30 % of the target cells multiplied by 100.

[3] = system: NK-92 effector cells on target K-562 cells; experiment: Calcein AM release assay (cytotoxicity); details: effector cells treated 10 µM, 6 h
Procedure: as §1

[4] = system: cystatin F in U-937 cells; experiment: Western blot of cystatin F dimer-to-monomer ratio; details: U-937 cell lysates, 6 h treatment, 10 and 20 μM, vs control
Procedure: Cells were treated with E-64d or compound 7 (both at 10 µM or 20 µM) for 6 h. After treatment, whole-cell lysates were prepared in RIPA buffer supplemented with cOmplete™ Protease Inhibitor Cocktail (Roche, Basel, Switzerland) and centrifuged at 16 000 × g for 20 min at 4 °C. Total protein concentration was determined using the DC assay (Biorad, Hercules, CA, USA). Proteins were separated by non-reducing SDS-PAGE and transferred to a nitrocellulose membrane using the TransBlot Turbo System (Biorad). After blocking, the membranes were incubated with primary antibodies overnight at 4 °C and with secondary antibodies for 1 h at room temperature. Bands were visualized using Clarity Max Western ECL substrate (Biorad), and protein loading was checked using Stain Free technology (Biorad). Images were acquired using the ChemiDoc ML Imaging System (Biorad), and quantification analysis was performed using Image Lab software (Biorad).
The following primary antibodies were used: rabbit anti-cystatin F (1:375, HPA040442, Sigma), goat anti-cathepsin V (1:200, AF 1080, R&D, USA), and mouse anti-GAPDH (1:3000, 10494-I-AP, Proteintech, USA). […]

[5] = system: U-937-derived macrophages; experiment: Intracellular elastin-FITC degradation; details: 10 μM, 24 h, vs DMSO
Procedure: To evaluate the effect of the inhibitors on the elastolytic activity of cathepsin V, we assessed the intracellular degradation of elastin-FITC, a soluble bovine neck ligament elastin that is heavily labeled with FITC such that the fluorescence of the conjugate is quenched. Upon proteolysis, fluorescence is recovered and can be detected. U-937 cells, differentiated into macrophage-like cells, were seeded (at 1 × 10^5 cells/well) into 24-well plates with 500 μL of medium supplemented with 50 nM PMA. Inhibitors or DMSO (0.1 %) and elastin-FITC (10 μg/mL; AnaSpec, Fermont, CA, USA) were added to the medium and incubated for 24 h at 37 °C. Cells were detached and washed with PBS, and propidium iodide (BD Bioscience) was added to exclude dead cells. Therefore, green fluorescence arising from elastin-FITC degradation was monitored only for viable cells. The measurement was performed using a FACSCalibur instrument (BD Biosciences).

With `CCOC(=O)[C@H]1O[C@@H]1C(=O)N[C@@H](CC(C)C)C(=O)NCCC(C)C` [Compound E-64d, reference compound] the “effect on cell proliferation (relative CFSE fluorescence intensity vs DMSO)” value [1] was “no effects on cell proliferation”, the “cytotoxicity of TALL-104 cells (target cell killing)” value [2] was “decreased cytotoxic function” and the “cytotoxicity of NK-92 cells (target cell killing)” value [3] was “decreased cytotoxic function”. For the same molecule, the “cystatin F dimer-to-monomer ratio” value [4] was “increased” and the “decrease of elastin-FITC degradation” value [5] was 18.4 ± 7.0%.
